In patent publication US11130778B2, “CD73 inhibitors” (ORIC Pharmaceuticals, Inc., priority 2019, dated 2021):

Target: T1, CD73 (Homo sapiens, UniProt P21589)
T1 sequence (P21589 27-549): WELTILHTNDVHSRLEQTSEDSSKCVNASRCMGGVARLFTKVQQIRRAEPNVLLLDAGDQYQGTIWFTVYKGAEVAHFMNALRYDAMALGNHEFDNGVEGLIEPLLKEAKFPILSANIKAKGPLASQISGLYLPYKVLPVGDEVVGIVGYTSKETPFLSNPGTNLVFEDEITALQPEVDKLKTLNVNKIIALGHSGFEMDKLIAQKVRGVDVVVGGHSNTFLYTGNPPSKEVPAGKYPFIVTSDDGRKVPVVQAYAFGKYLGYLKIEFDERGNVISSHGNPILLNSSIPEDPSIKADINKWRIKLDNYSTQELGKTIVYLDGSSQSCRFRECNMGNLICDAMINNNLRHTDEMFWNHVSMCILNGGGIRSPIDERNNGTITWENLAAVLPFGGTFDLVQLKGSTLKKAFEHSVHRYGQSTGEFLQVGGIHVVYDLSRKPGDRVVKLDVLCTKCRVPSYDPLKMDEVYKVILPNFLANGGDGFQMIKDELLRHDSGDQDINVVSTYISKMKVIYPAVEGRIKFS
Assay: Biochemical assay of CD73 inhibition (Malachite Green)
Details: CD73 0.3208 nM, AMP 15 μM, Tris-HCl pH 7.4, Malachite Green absorbance readout; read-out: CD73_Biochem
Experimental: Example A1: Biochemical Assay
Assay Reaction Conditions
• Assay Volume: 70 μl • Reaction Volume: 50 μl • CD73: 0.3208 nM • AMP:15 μM • Assay Buffer: 2 5 mM Tris-HCL, pH 7.4, 0.01% Brij-35, 0.01% BSA, 5 mM MgCl2 Assay Procedure:
Made dose titration of testing compounds in assay buffer, 10 points 1/2 log titrations in duplicates starting at 100 μM.
Added 25 µl of CD73 to each well for a final concentration of […].
Incubated at RT for 15 min.
Added 25 µl of AMP to each well for a final concentration of 15 μM.
Incubated at RT for 10 min.
Added […] of Malachite Green Reagent A, incubate at RT for 10 min.
Added […] of Malachite Green Reagent B, incubate at RT for 45 min.
Read the Absorbance on Envision plate reader using excitation filter: Cy5 […].
The ability of the compounds disclosed herein to inhibit CD73 activity was quantified and the respective IC50 values were determined. Table 2 provides the biochemical IC50 values of compounds disclosed herein.

| SMILES | IC50 [nM] |
| --- | --- |
| CC(C)CNc1nc(Cl)nc2c1cnn2[C@@H]1O[C@H](COC(CO)(Cc2nn[nH]n2)P(=O)(O)O)[C@@H](O)[C@H]1O (stereo partly drawn) [Example 16, (2-(((2R,3S,4R.,5R)-5-(6-chloro-4-(isobutylamino)-1H-pyrazolo[3,4-d]pyrimidin-1-yl)-3,4-dihydroxytetrahydrofuran-2-yl)methoxy)-1-hydroxy-3-(2H-tetrazol-5-yl)propan-2-yl)phosphonic acid] | ≤ 10 |
| O=P(O)(O)C(CO)(CCc1nnn[nH]1)OC[C@H]1O[C@@H](n2ncc3c(NC4CCCC4)nc(Cl)nc32)[C@H](O)[C@@H]1O (stereo partly drawn) [Example 18, (2-(((2R,3S,4R,5R)-5-(6-chloro-4-(cyclopentylamino)-1H-pyrazolo[3,4-d]pyrirnidin-1-yl)-3,4-dihydroxytetrahydrofuran-2-yl)methoxy)-1-hydroxy-4-(1H-tetrazol-5-yl)butan-2-yl)phosphonic acid] | ≤ 10 |
| O=P(O)(O)[C@](CO)(Cc1nn[nH]n1)OC[C@H]1O[C@@H](n2ncc3c(NCC4CCC4)nc(Cl)nc32)[C@H](O)[C@@H]1O [Example 19, ((S)-2-(((2R,3S,4R,5R)-5-(6-chloro-4-((cyclobutylmethyl)amino)-1H-pyrazolo[3,4-d]pyrimidin-1-yl)-3,4-dihydroxytetrahydrofuran-2-yl)methoxy)-1-hydroxy-3-(2H-tetrazol-5-yl)propan-2-yl)phosphonic acid] | ≤ 10 |
| O=P(O)(O)[C@@](CO)(Cc1nn[nH]n1)OC[C@H]1O[C@@H](n2ncc3c(NCC4CCC4)nc(Cl)nc32)[C@H](O)[C@@H]1O [Example 20, ((R)-2-(((2R,3S,4R,5R)-5-(6-chloro-4-((cyclobutylmethyl)amino)-1H-pyrazolo[3,4-d]pyrimidin-1-yl)-3,4-dihydroxytetrahydrofuran-2-yl)methoxy)-1-hydroxy-3-(2H-tetrazol-5-yl)propan-2-yl)phosphonic acid] | 10 to 100 |
| COCC(CC(=O)NS(=O)(=O)N(C)C)(OC[C@H]1O[C@@H](n2ncc3c(NC4CCCC4)nc(Cl)nc32)[C@H](O)[C@@H]1O)P(=O)(O)O (stereo partly drawn) [Example 22, (2-(((2R,3S,4R,5R)-5-(6-chloro-4-(cyclopentylamino)-1H-pyrazolo[3,4-d]pyrimidin-1-yl)-3,4-dihydroxytetrahydrofuran-2-yl)methoxy)-4-((N,N-dimethylsulfamoyl)amino)-1-methoxy-4-oxobutan-2-yl)phosphonic acid] | ≤ 10 |
| O=P(O)(O)[C@](CO)(COCc1nn[nH]n1)OC[C@H]1O[C@@H](n2ncc3c(NC4CCCC4)nc(Cl)nc32)[C@H](O)[C@@H]1O [Example 24, ((R)-1-((2H-tetrazol-5-yl)methoxy)-2-(((2R,3S,4R,5R)-5-(6-chloro-4-(cyclopentylamino)-1H-pyrazolo[3,4-d]pyrimidin-1-yl)-3,4-dihydroxytetrahydrofuran-2-yl)methoxy)-3-hydroxypropan-2-yl)phosphonic acid] | ≤ 10 |
| CC(C)Nc1nc(Cl)nc2c1cnn2[C@@H]1O[C@H](CO[C@@](CO)(Cc2nn[nH]n2)P(=O)(O)O)[C@@H](O)[C@H]1O [Example 28, ((S)-2-(((2R,3S,4R,5R)-5-(6-chloro-4-(isopropylamino)-1H-pyrazolo[3,4-d]pyrimidin-1-yl)-3,4-dihydroxytetrahydrofuran-2-yl)methoxy)-1-hydroxy-3-(2H-tetrazol-5-yl)propan-2-yl)phosphonic acid] | 10 to 100 |
| CC(C)Nc1nc(Cl)nc2c1cnn2[C@@H]1O[C@H](CO[C@](CO)(Cc2nn[nH]n2)P(=O)(O)O)[C@@H](O)[C@H]1O [Example 29, ((R)-2-(((2R,3S,4R,5R)-5-(6-chloro-4-(isopropylamino)-1H-pyrazolo[3,4-d]pyrimidin-1-yl)-3,4-dihydroxytetrahydrofuran-2-yl)methoxy)-1-hydroxy-3-(2H-tetrazol-5-yl)propan-2-yl)phosphonic acid] | ≤ 10 |
| COC[C@](Cc1nn[nH]n1)(OC[C@H]1O[C@@H](n2ncc3c(NC(C)C)nc(Cl)nc32)[C@H](O)[C@@H]1O)P(=O)(O)O [Example 31, ((R)-2-(((2R,3S,4R,5R)-5-(6-chloro-4-(isopropylamino)-1H-pyrazolo[3,4-d]pyrimidin-1-yl)-3,4-dihydroxytetrahydrofuran-2-yl)methoxy)-1-methoxy-3-(2H-tetrazol-5-yl)propan-2-yl)phosphonic acid] | ≤ 10 |
| CC(C)CNc1nc(Cl)nc2c1cnn2[C@@H]1O[C@H](CO[C@@](CO)(Cc2nn[nH]n2)P(=O)(O)O)[C@@H](O)[C@H]1O [Example 32, ((S)-2-(((2R,3S,4R,5R)-5-(6-chloro-4-(isobutylamino)-1H-pyrazolo[3,4-d]pyrimidin-1-yl)-3,4-dihydroxytetrahydrofuran-2-yl)methoxy)-1-hydroxy-3-(2H-tetrazol-5-yl)propan-2-yl)phosphonic acid] | 10 to 100 |

Continued, values first:

| IC50 [nM] | SMILES |
| --- | --- |
| 10 to 100 | COCC(OC[C@H]1O[C@@H](n2ncc3c(NC4CCCC4)nc(Cl)nc32)[C@H](O)[C@@H]1O)(C(=O)N(C)C)P(=O)(O)O (stereo partly drawn) [Example 15, (2-(((2R,3S,4R,5R)-5-(6-chloro-4-(cyclopentylamino)-1H-pyrazolo[3,4-d]pyrimidin-1-yl)-3,4-dihydroxytetrahydrofuran-2-yl)methoxy)-1-(dimethylamino)-3-methoxy-1-oxopropan-2-yl)phosphonic acid] |
| ≤ 10 | O=P(O)(O)C(CO)(Cc1nn[nH]n1)OC[C@H]1O[C@@H](n2ncc3c(NC4CCC4)nc(CO)nc32)[C@H](O)[C@@H]1O (stereo partly drawn) [Example 17, (2-(((2R,3S,4R,5R)-5-(4-(cyclobutylamino)-6-(hydroxymethyl)-1H-pyrazolo[3,4-d]pyrimidin-1-yl)-3,4-dihydroxytetrahydrofuran-2-yl)methoxy)-1-hydroxy-3-(2H-tetrazol-5-yl)propan-2-yl)phosphonic acid] |
| ≤ 10 | O=P(O)(O)[C@](CO)(COCc1nn[nH]n1)OC[C@H]1O[C@@H](n2ncc3c(NCC4CC4)nc(Cl)nc32)[C@H](O)[C@@H]1O [Example 21, ((R)-1-((2H-tetrazol-5-yl)methoxy)-2-(((2R,3S,4R,5R)-5-(6-chloro-4-((cyclopropylmethyl)amino)-1H-pyrazolo[3,4-d]pyrimidin-1-yl)-3,4-dihydroxytetrahydrofuran-2-yl)methoxy)-3-hydroxypropan-2-yl)phosphonic acid] |
| ≤ 10 | COCC(Cc1nn[nH]n1)(OC[C@H]1O[C@@H](n2ncc3c(NC(C)C)nc(Cl)nc32)[C@H](O)[C@@H]1O)P(=O)(O)O (stereo partly drawn) [Example 23, (2-(((2R,3S,4R,5R)-5-(6-chloro-4-(isopropylamino)-1H-pyrazolo[3,4-d]pyrimidin-1-yl)-3,4-dihydroxytetrahydrofuran-2-yl)methoxy)-1-methoxy-3-(2H-tetrazol-5-yl)propan-2-yl)phosphonic acid] |
| ≤ 10 | O=P(O)(O)[C@@](CO)(COCc1nn[nH]n1)OC[C@H]1O[C@@H](n2ncc3c(NC4CCCC4)nc(Cl)nc32)[C@H](O)[C@@H]1O [Example 25, ((S)-1-((2H-tetrazol-5-yl)methoxy)-2-(((2R,3S,4R,5R)-5-(6-chloro-4-(cyclopentylamino)-1H-pyrazolo[3,4-d]pyrimidin-1-yl)-3,4-dihydroxytetrahydrofuran-2-yl)methoxy)-3-hydroxypropan-2-yl)phosphonic acid] |
| ≤ 10 | O=c1[nH]c(C[C@@](CO)(OC[C@H]2O[C@@H](n3ncc4c(NC5CCCC5)nc(Cl)nc43)[C@H](O)[C@@H]2O)P(=O)(O)O)no1 [Example 26, ((R)-2-(((2R,3S,4R,5R)-5-(6-chloro-4-(cyclopentylamino)-1H-pyrazolo[3,4-d]pyrimidin-1-yl)-3,4-dihydroxytetrahydrofuran-2-yl)methoxy)-1-hydroxy-3-(5-oxo-4,5-dihydro-1,2,4-oxadiazol-3-yl)propan-2-yl)phosphonic acid] |
| ≤ 10 | O=c1[nH]c(C[C@](CO)(OC[C@H]2O[C@@H](n3ncc4c(NC5CCCC5)nc(Cl)nc43)[C@H](O)[C@@H]2O)P(=O)(O)O)no1 [Example 27, ((S)-2-(((2R,3S,4R,5R)-5-(6-chloro-4-(cyclopentylamino)-1H-pyrazolo[3,4-d]pyrimidin-1-yl)-3,4-dihydroxytetrahydrofuran-2-yl)methoxy)-1-hydroxy-3-(5-oxo-4,5-dihydro-1,2,4-oxadiazol-3-yl)propan-2-yl)phosphonic acid] |
| 10 to 100 | COC[C@@](Cc1nn[nH]n1)(OC[C@H]1O[C@@H](n2ncc3c(NC(C)C)nc(Cl)nc32)[C@H](O)[C@@H]1O)P(=O)(O)O [Example 30, ((S)-2-(((2R,3S,4R,5R)-5-(6-chloro-4-(isopropylamino)-1H-pyrazolo[3,4-d]pyrimidin-1-yl)-3,4-dihydroxytetrahydrofuran-2-yl)methoxy)-1-methoxy-3-(2H-tetrazol-5-yl)propan-2-yl)phosphonic acid] |
